From patent publication US9527828B2, “Method for expanding hematopoietic stem cells using heterocyclic compound” (Nissan Chemical Industries, Ltd., priority 2007, dated 2016)

The molecules below were run on CD34^+CD38^− cells (assay: Expansion of CD34+CD38− cells from human cord blood-derived CD34+ cells (Example 2)). Conditions: Homo sapiens, 168 h, 1 μg/mL compound, 50 ng/mL SCF, StemSpan SFEM, 7 days; based on number of CD34+CD38− cells in the absence of compound; read-out: Expansion efficiency.
Format: cell-based
Description: The human cord blood-derived CD34^+ cells collected or purchased in Example 1 were plated on a 24-well plate (TPP) (10000 cells/1/mL/well). As the culture medium, StemSpan SFEM (Stemcell Technologies) containing 50 ng/mL SCF (Peprotech) was used, and Compounds No. 1 to 133 dissolved in dimethyl sulfoxide were added in an amount of 0.1% (v/v) to a final concentration of 1 μg/mL.
After the cells were incubated in liquid culture at 37° C. for 7 days in a CO2 incubator (5% CO2), the number of viable cells was counted by trypan blue assay. The number of CD34^+CD38^− cells was calculated as follows. After the incubation, the cells in the liquid culture was stained with a CD34 antibody (APC, Becton, Dickinson and Company) and a CD38 antibody (PE, Becton, Dickinson and Company), then washed with PBS(−) containing 2% (v/v) FBS and stained with propidium iodide (Sigma-Aldrich Japan) added to a final concentration of 5 μg/mL. The stained cells were analyzed with a flow cytometer JSAN (Bay Bioscience) to determined the proportion of CD34^+CD38^− cells, which was multiplied by the number of viable cells to calculate the number of CD34^+CD38^− cells.
The expansion efficiencies in the presence of 1 μg/mL of compounds based on the number of CD34^+CD38^− cells in the absence of them are shown in Tables 2 and 3 on a scale of A for expansion efficiencies of 10 or greater, B for expansion efficiencies of at least 5 and less than 10, and C for expansion efficiencies of at least 3 and less than 5.
With `C/C(=N\NC(=O)c1ccc(C(=O)NC(C)c2ccc(C(N)=O)cc2)s1)c1csc(-c2ccc(OC(F)(F)F)cc2)c1O` (stereo not shown) [compound 118] the fold induction at 1 µg/mL was ≥ 10. With `CNC(=O)c1ccc(CNC(=O)c2ccc(C(=O)N/N=C(\C)c3csc(-c4ccc(Cl)c(Cl)c4)c3O)s2)cc1` [compound 106] the fold induction at 1 µg/mL was ≥ 10. For `C/C(=N\NC(=O)c1ccc(C(=O)NCc2ccc(C(N)=O)cc2)s1)c1csc(-c2ccc(OC(F)(F)F)cc2)c1O` [compound 90], the fold induction at 1 µg/mL was ≥ 10. `CCCNC(=O)c1ccc(C(=O)N/N=C(\C)c2csc(-c3ccc(Cl)c(Cl)c3)c2O)s1` [compound 62] was tested, and the fold induction at 1 µg/mL was 3 to 5. With `COc1ccc(-c2scc(/C(C)=N/NC(=O)c3ccc(C(=O)NCc4cccc(C(N)=O)c4)s3)c2O)cc1` [compound 98] the fold induction at 1 µg/mL was ≥ 10. `C/C(=N\NC(=O)c1ccc(C(=O)NCc2ccccc2C(N)=O)s1)c1csc(-c2ccc(C(C)(C)C)cc2)c1O` [compound 100] gave a fold induction at 1 µg/mL of 3 to 5. `C/C(=N\NC(=O)c1ccc(C(=O)NCc2cnn(C)n2)s1)c1csc(-c2ccc(C(F)(F)F)cc2)c1O` [compound 54] showed a fold induction at 1 µg/mL of 5 to 10. In the case of `C/C(=N\NC(=O)c1ccc(C(=O)NCc2cc(Cl)no2)s1)c1csc(-c2ccc(Cl)c(Cl)c2)c1O` [compound 47], the fold induction at 1 µg/mL is reported as 5 to 10. With `CNC(=O)c1ccc(CNC(=O)c2ccc(C(=O)N/N=C(\C)c3csc(-c4ccc(C(F)(F)F)cc4)c3O)s2)cc1` [compound 109] the fold induction at 1 µg/mL was ≥ 10. `CNC(=O)c1ccc(CNC(=O)c2ccc(C(=O)N/N=C(\C)c3csc(-c4ccc(C(C)(C)C)cc4)c3O)s2)cc1` [compound 107] was tested, and the fold induction at 1 µg/mL was ≥ 10. `CNC(=O)c1ccc(CNC(=O)c2ccc(C(=O)N/N=C(\C)c3csc(-c4ccc(Cl)cc4)c3O)s2)cc1` [compound 110] was tested, and the fold induction at 1 µg/mL was ≥ 10. In the case of `CC(=O)Nc1ccc(C(C)NC(=O)c2ccc(C(=O)N/N=C(\C)c3csc(-c4ccc(OC(F)(F)F)cc4)c3O)s2)cc1` (stereo not shown) [compound 125], the fold induction at 1 µg/mL is reported as ≥ 10. `C/C(=N\NC(=O)c1ccc(C(=O)NCc2cc(C)on2)s1)c1csc(-c2ccc(C(F)(F)F)cc2)c1O` [compound 46] was tested, and the fold induction at 1 µg/mL was 5 to 10. With `C/C(=N\NC(=O)c1ccc(C(=O)NC(C)C)s1)c1csc(-c2cccc(Cl)c2)c1O` [compound 78] the fold induction at 1 µg/mL was 5 to 10. For `CC(=O)Nc1ccc(C(C)NC(=O)c2ccc(C(=O)N/N=C(\C)c3csc(-c4ccc(C(C)(C)C)cc4)c3O)s2)cc1` (stereo not shown) [compound 121], the fold induction at 1 µg/mL was 5 to 10. With `C/C(=N\NC(=O)c1ccc(C(=O)NCc2ccc(C(N)=O)cc2)s1)c1csc(-c2ccc(Cl)cc2)c1O` [compound 89] the fold induction at 1 µg/mL was ≥ 10. In the case of `C/C(=N\NC(=O)c1ccc(C(=O)NCc2c(C)nn(C)c2C)s1)c1csc(-c2ccc(C(F)(F)F)cc2)c1O` [compound 49], the fold induction at 1 µg/mL is reported as 5 to 10. In the case of `COc1ccc(-c2scc(/C(C)=N/NC(=O)c3ccc(C(=O)NCc4cn(C)cn4)s3)c2O)cc1` [compound 133], the fold induction at 1 µg/mL is reported as ≥ 10. For `COc1ccc(-c2scc(/C(C)=N/NC(=O)c3ccc(C(=O)NCc4ccc(C(N)=O)cc4)s3)c2O)cc1` [compound 91], the fold induction at 1 µg/mL was ≥ 10. In the case of `C/C(=N\NC(=O)c1ccc(C(=O)NCc2cnn(C)n2)s1)c1csc(-c2ccc(Cl)c(Cl)c2)c1O` [compound 53], the fold induction at 1 µg/mL is reported as 5 to 10. `C/C(=N\NC(=O)c1ccc(C(=O)NC2CCC(O)CC2)s1)c1csc(-c2ccc(Cl)c(Cl)c2)c1O` (stereo not shown) [compound 68] showed a fold induction at 1 µg/mL of 5 to 10. With `C/C(=N\NC(=O)c1ccc(C(=O)NCc2cn(C)cn2)s1)c1csc(-c2ccc(C(F)(F)F)cc2)c1O` [compound 55] the fold induction at 1 µg/mL was 5 to 10. `C/C(=N\NC(=O)c1ccc(C(=O)NCc2cc(C)on2)s1)c1csc(-c2ccc(Cl)c(Cl)c2)c1O` [compound 38] was tested, and the fold induction at 1 µg/mL was ≥ 10. `CCCCCN(C)C(=O)c1ccc(C(=O)N/N=C(\C)c2csc(-c3ccc(Cl)c(Cl)c3)c2O)s1` [compound 27] was tested, and the fold induction at 1 µg/mL was 5 to 10. With `C/C(=N\NC(=O)c1ccc(C(=O)NC2CCCC2)s1)c1csc(-c2ccc(Cl)c(Cl)c2)c1O` [compound 63] the fold induction at 1 µg/mL was 3 to 5.
